Reference: patent publication EP2380575B1, “Eslicarbazepine acetate and use” (Bial-Portela & CA, S.A., priority 2005, dated 2006)
Like-named read-outs stand apart in the source and are kept apart here. One block for each compound: values may come before it.

What was measured:
[1] = Study in epileptic patients: trough plasma concentrations of BIA 2-005; format: in vivo, humans
From the text: This clinical trial was a double-blind, randomized, placebo-controlled study performed by 20 centers in Croatia, Czech Republic, Germany, Lithuania and Poland. The stated objectives of the study were to assess the efficacy and safety of BIA 2-093 as adjunctive therapy in patients with refractory partial epilepsy. In total, 143 patients aged 18-65 years with at least 4 partial-onset seizures per month in spite of treatment with 1 or 2 antiepileptic drugs (AEDs) (e.g., phenytoin, valproate, primidone, phenobarbital, lamotrigine, gabapentin, topiramate or clonazepam) were randomly assigned to one of three groups: treatment with placebo (n=47), BIA 2-093 once-daily (n=50), or BIA 2-093 twice-daily (n=46), during 12 weeks (plus 1 week of tapering off). For the first 4 weeks, daily dose was 400 mg. Then, daily doses were increased to 800 mg (weeks 5-8), and finally to 1200 mg (weeks 9-12). […] See, e.g., Almeida I and Almeida II.
Plasma/serum samples for the "trough" (pre-dose) levels of BIA 2-005 and concomitant AEDs were collected at all visits but V5 (post-study visit). The objective was to characterize the influence of eslicarbazepine acetate on the pharmacokinetic behavior of the concomitant AEDs (e.g., phenytoin, valproate, primidone, phenobarbital, lamotrigine, gabapentin, topiramate, and clonazepam). […] Table 1: Trough plasma concentrations of BIA 2-005 following oral administration of eslicarbazepine acetate once-daily (o.d.) and twice-daily (b.i.d)

[2] = test system: voltage-gated sodium channel (VGSC); conditions: compared with carbamazepine; cited from earlier work
[3] = after oral administration; below LOQ of the assay; cited from earlier work
[4] = Trial B: pharmacokinetics following single and repeated doses in healthy young male subjects; format: in vivo, humans; conditions: in a minor extent to R-licarbazepine
Method: The study integrated the results of three double-blind, randomized, placebo-controlled trials. To measure the pharmacokinetics of eslicarbazepine acetate following single doses, oral single doses of eslicarbazepine acetate ranging from 20 mg to 2400 mg were administered to healthy young male subjects (6 subjects per dose). The pharmacokinetics of eslicarbazepine acetate following repeated doses were measured by administering repeated oral doses ranging from 400 mg to 2400 mg of eslicarbazepine acetate to healthy young male subjects (6 subjects per dose) over a period of 8 days. Analytical test methods and experimental procedures were similar to those described for Trial A above.

[5] = test system: patients with refractory partial epilepsy; experiment: Study in epileptic patients: efficacy as adjunctive therapy; format: in vivo, humans; conditions: for reduction in the number of seizures: versus baseline; for proportion of responders (50% or greater reduction in seizure frequency vs baseline): ITT
Method: The effects of eslicarbazepine acetate in humans was studied in at least the following clinical studies. In the first study, a placebo-controlled therapeutic exploratory study, once-daily and twice-daily dosing was compared in epileptic patients refractory to standard anti-epileptic drug therapy. In the second study, healthy subjects received either a once-daily (o.d.) oral dose of 900 mg of eslicarbazepine acetate or a twice-daily (b.i.d.) dose of 450 mg of eslicarbazepine acetate. In the third study, healthy subjects received single oral doses of eslicarbazepine acetate ranging from 20 mg to 2400 mg, and repeated once-daily (o.d.) oral doses ranging from 400 mg to 2400 mg of eslicarbazepine acetate. This clinical trial was a double-blind, randomized, placebo-controlled study performed by 20 centers in Croatia, Czech Republic, Germany, Lithuania and Poland. The stated objectives of the study were to assess the efficacy and safety of BIA 2-093 as adjunctive therapy in patients with refractory partial epilepsy. […] For the first 4 weeks, daily dose was 400 mg. Then, daily doses were increased to 800 mg (weeks 5-8), and finally to 1200 mg (weeks 9-12). […] See, […] and Almeida II. The proportion of patients with a 50% or greater reduction in seizure frequency in the treatment period compared to the baseline period in the intention-to-treat (ITT) population (n=143) was the primary efficacy endpoint. […] The proportion of responders in the once-daily group (54%) was also higher than in the twice-daily (41%) group. […] At this dose level, no significant difference was found between the twice-daily and the placebo groups. Secondary endpoints include the reduction in total seizure frequency, proportion of seizure-free patients, distribution of responders, comparison of once and twice daily regimens, and investigator's and patient's global evaluation.

[6] = Metabolic profile in liver microsomes, chiral analysis; format: in vitro ADME; conditions: liver microsomes from rats, dogs, monkeys and humans, not the R(-) form
[7] = not given; remark: listed apart in the source

extent of systemic exposure versus dose (oral eslicarbazepine acetate, healthy subjects): approximately dose-proportional
total amount recovered in the urine (within 12 hours post-dose): about 20%
total amount recovered in the urine (within 24 hours post-dose): ~40%
Trough plasma concentration, Mean (sd) ([1]; 400 mg/day eslicarbazepine acetate, b.i.d. group): 4.9(2.3) µg/mL
Trough plasma concentration, Mean (sd) ([1]; 400 mg/day eslicarbazepine acetate, o.d. group): 4.0 (3.2) µg/mL
Trough plasma concentration, Mean (sd) ([1]; 800 mg/day eslicarbazepine acetate, b.i.d. group): 13.5 (9.6) µg/mL
Trough plasma concentration, Mean (sd) ([1]; 800 mg/day eslicarbazepine acetate, o.d. group): 10.7(7.0) µg/mL
Trough plasma concentration, Mean (sd) ([1]; 1200 mg/day eslicarbazepine acetate, b.i.d. group): 15.5 (8.8) µg/mL
Trough plasma concentration, Mean (sd) ([1]; 1200 mg/day eslicarbazepine acetate, o.d. group): 14.6 (8.8) µg/mL
SMILES: NC(=O)N1c2ccccc2CC(O)c2ccccc21 (stereo not drawn) [BIA 2-005]

metabolite formed in liver microsomes [6]: S(+) enantiomer of licarbazepine
plasma concentrations of parent drug ([7]; limit of quantification 10 ng/mL): below the limit of quantification
SMILES: CC(=O)O[C@H]1Cc2ccccc2N(C(N)=O)c2ccccc21 [eslicarbazepine acetate]
affinity for the resting state of the channel, lower than that of carbamazepine [2]: about 3 fold
plasma concentrations of the parent drug [3]: < 10 ng/mL
metabolism of eslicarbazepine acetate [4]: extensively metabolized to eslicarbazepine
reduction in the number of seizures ([5]; 400 mg once-daily): 38.9%
reduction in the number of seizures ([5]; 400 mg twice-daily): 20.2%
reduction in the number of seizures ([5]; 800 mg once-daily): 55.8%
reduction in the number of seizures ([5]; 800 mg twice-daily): 38.1%
proportion of responders (50% or greater reduction in seizure frequency vs baseline) ([5]; 800 mg/day (weeks 5-8), once-daily group): 58%
proportion of responders (50% or greater reduction in seizure frequency vs baseline) ([5]; 800 mg/day (weeks 5-8), twice-daily group): 33%
reduction in the number of seizures ([5]; 1200 mg once-daily): 59.5%
reduction in the number of seizures ([5]; 1200 mg twice-daily): 47.5%
proportion of responders (50% or greater reduction in seizure frequency vs baseline) ([5]; 1200 mg/day (weeks 9-12), once-daily group): 54%
proportion of responders (50% or greater reduction in seizure frequency vs baseline) ([5]; 1200 mg/day (weeks 9-12), twice-daily group): 41%
patients seizure-free ([5]; end of the 12-week treatment phase, once-daily group): 27.9%
assessment of efficacy by the investigator (CGI - Clinical Global Impression) and of acceptability by patient ([5]; once-daily group compared with the other groups): rated best
metabolism of eslicarbazepine acetate ([7]; in a minor extent to R-licarbazepine): extensively metabolized to eslicarbazepine
